Patent US9062041B2 (Bayer Intellectual Property GmbH, priority 2011, dated 2015)

Experiments:
Type in all cases: cell-based
[1] = target: T1, human PGD receptor (Homo sapiens, UniProt Q13258); experiment: cAMP antagonism test on the human prostaglandin D receptor (HTRF cAMP detection); conditions: selectivity towards hDP, IC50 measured by cAMP antagonism test
T1 sequence (Q13258 1-359): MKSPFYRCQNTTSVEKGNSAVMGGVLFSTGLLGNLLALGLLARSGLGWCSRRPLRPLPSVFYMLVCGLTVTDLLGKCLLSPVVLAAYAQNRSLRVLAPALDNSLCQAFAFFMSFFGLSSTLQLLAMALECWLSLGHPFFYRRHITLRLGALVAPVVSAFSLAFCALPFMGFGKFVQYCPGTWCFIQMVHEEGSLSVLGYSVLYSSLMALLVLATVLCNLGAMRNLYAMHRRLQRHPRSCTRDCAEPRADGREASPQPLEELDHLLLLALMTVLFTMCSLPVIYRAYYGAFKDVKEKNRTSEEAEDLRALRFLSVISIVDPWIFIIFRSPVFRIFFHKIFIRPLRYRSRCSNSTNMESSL
Excerpt: 3. Detection of Antagonism to the Human Prostaglandin D Receptor Signal
The binding of prostaglandin D2 to the human PGD receptor induces the activation of membrane-located adenylate cyclases and leads to the formation of cAMP. In the presence of the phosphodiesterase inhibitor IBMX, the cAMP accumulated owing to this stimulation and released by cell lysis is used in a competitive detection method. In this test, the cAMP present in the lysate competes with a fluorescence-labelled cAMP (cAMP-d2) for binding to an Eu cryptate-labelled anti-cAMP antibody.
(§1) In the absence of cellular cAMP, a maximal signal is produced, which is attributable to the binding of this cAMP-d2 molecule to the antibody. After excitation of the […] at 337 nm, there is a fluorescence resonance energy transfer (FRET) to the Eu cryptate molecules of the anti-cAMP antibody (labelled therewith), followed by a long-lasting emission signal at 665 nm (and at […]). Both signals are measured in a suitable measurement instrument with a time delay, i.e. after decay of the background fluorescence. Any increase in the low FRET signal caused by prostaglandin E2 administration (measured as well ratio change=emission665 nm/emission620 nm*10000) indicates the action of antagonists.
3.2.1. Test for Antagonism (Data Per Well of a 384-Well Plate):
(§2) To a test plate with the substance solutions already added (0.05 μl; 100% DMSO, concentration range from 0.8 nM-16.5 μM) were added 4 μl of a cAMP-d2/cell suspension (625000 cells/ml). After a 20-minute preincubation at room temperature (RT), 2 μl of a 3×PGD2 solution (6 nM, in PBS-IBMX) were added and incubated in the presence of the agonist for a further 30 mins at RT (volume: ˜6 μl). Next the reaction was stopped by addition of 2 μl of lysis buffer and incubated for a further 20 mins at RT before the actual measurement (volume: ˜8 μl).

[2] = target: EP4 subtype of the human PGE2 receptor (Homo sapiens, UniProt P35408); experiment: cAMP antagonism test on the human EP4 receptor (HTRF cAMP detection); conditions: selectivity towards hEP4, IC50 measured by cAMP antagonism test
EP4 subtype of the human PGE2 receptor, sequence (P35408 whole entry): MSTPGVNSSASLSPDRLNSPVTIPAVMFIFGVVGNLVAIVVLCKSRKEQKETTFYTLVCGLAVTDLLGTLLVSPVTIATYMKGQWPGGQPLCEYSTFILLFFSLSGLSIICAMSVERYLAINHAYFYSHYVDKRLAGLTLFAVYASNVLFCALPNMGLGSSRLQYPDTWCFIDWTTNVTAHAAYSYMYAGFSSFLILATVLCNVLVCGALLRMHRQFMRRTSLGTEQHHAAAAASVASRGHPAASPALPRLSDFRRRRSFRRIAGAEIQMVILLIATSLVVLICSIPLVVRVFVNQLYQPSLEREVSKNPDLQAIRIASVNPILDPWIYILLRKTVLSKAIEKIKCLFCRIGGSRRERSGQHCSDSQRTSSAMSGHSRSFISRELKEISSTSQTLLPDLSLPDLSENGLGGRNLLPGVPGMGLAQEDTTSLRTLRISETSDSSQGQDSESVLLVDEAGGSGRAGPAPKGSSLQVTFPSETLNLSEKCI
Excerpt: 2. Detection of Antagonism to the Human Prostaglandin E2 (Subtype EP4) Receptor Signal
(§3) The binding of PGE2 to the EP4 subtype of the human PGE2 receptor induces the activation of membrane-located adenylate cyclases and leads to the formation of cAMP. In the presence of the phosphodiesterase inhibitor IBMX, the cAMP accumulated owing to this stimulation and released by cell lysis is used in a competitive detection method. In this test, the cAMP present in the lysate competes with a fluorescence-labelled cAMP (cAMP-d2) for binding to an Eu cryptate-labelled anti-cAMP antibody.
as §1, with “cAMP” for “cAMP,”
2.2.1. Test for Antagonism (Data Per Well of a 384-Well Plate):
as §2, with “(312500” for “(625000”, “3×PGE2” for “3×PGD2”, “(0.3” for “(6”, “60” for “30”

[3] = target: EP2 subtype of the human PGE2 receptor (Homo sapiens, UniProt P43116); experiment: cAMP antagonism test on the human EP2 receptor (HTRF cAMP detection); conditions: hEP2 receptor, read-out: Antagonism hEP2 IC50
EP2 subtype of the human PGE2 receptor, sequence (P43116 whole entry): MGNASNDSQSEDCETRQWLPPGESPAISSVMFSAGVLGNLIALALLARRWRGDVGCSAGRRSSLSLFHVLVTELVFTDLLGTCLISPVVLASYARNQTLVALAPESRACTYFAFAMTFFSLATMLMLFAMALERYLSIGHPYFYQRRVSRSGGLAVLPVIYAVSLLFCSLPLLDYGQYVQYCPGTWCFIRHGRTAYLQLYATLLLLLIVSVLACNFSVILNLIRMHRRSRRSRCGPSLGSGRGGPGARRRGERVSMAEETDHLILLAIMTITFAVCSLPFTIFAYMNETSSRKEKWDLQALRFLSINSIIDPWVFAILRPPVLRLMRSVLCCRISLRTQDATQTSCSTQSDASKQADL
Excerpt: 1. Detection of Antagonism to the Human Prostaglandin E2 (Subtype EP2) Receptor Signal
as §3, with “EP2” for “EP4”
as §1
1.2.1. Test for Antagonism (Data Per Well of a 384-Well Plate):
as §2, with “a 3×PGE2” for “a 3×PGD2”, “solution (1.5” for “solution (6”, “further 60” for “further 30”

Compound | Selectivity hEP2/hDP [1] | Selectivity hEP2/hEP4 [2] | IC50 [3] [nM]
O=C(NCCOCC1CC1)c1ccc2nn(CC3CCN(C(=O)c4ccc(Oc5ccc(F)cc5)cc4)CC3)cc2c1OCC(F)(F)F [Example 236, N-[2-(cyclopropylmethoxy)ethyl]-2-({1-[4-(4-fluorophenoxy)benzoyl]piperidin-4-yl}methyl)-4-(2,2,2-trifluoroethoxy)-2H-indazol-5-carboxamide] | xxx (xxx > 100) | xxx (xxx > 100) | 57.5
Cc1c(C(=O)NCC(F)(F)F)ccc2nn(CC3CCN(C(=O)c4ccc(Oc5cccc(C(F)(F)F)n5)cc4)CC3)cc12 [Example 304, 4-methyl-N-(2,2,2-trifluoroethyl)-2-{[1-(4-{[6-(trifluoromethyl)pyridin-2-yl]-oxy}benzoyl)piperidin-4-yl]methyl}-2H-indazol-5-carboxamide] | xxx (xxx > 100) | xxx (xxx > 100) | 99.8
Cc1c(C(=O)NCC(F)(F)F)ccc2nn(CC3CN(C(=O)c4ccc(-c5ccc(F)cc5)cc4)C3)cc12 [Example 161, 2-({1-[(4′-fluorobiphenyl-4-yl)carbonyl]azetidin-3-yl}methyl)-4-methyl-N-(2,2,2-trifluoroethyl)-2H-indazol-5-carboxamide] | xxx (xxx > 100) | xxx (xxx > 100) | 98.2
Cc1c(C(=O)NCC2CCCCO2)ccc2nn(CC3CN(C(=O)c4ccc(Cl)cc4)C3)cc12 (racemic) [Example 144, (+/−)-2-{[1-(4-chlorobenzoyl)azetidin-3-yl]methyl}-4-methyl-N-(3,4,5,6-tetrahydro-2H-pyran-2-ylmethyl)-2H-indazol-5-carboxamide] | xxx (xxx > 100) | xxx (xxx > 100) | 50.8
Cc1c(C(=O)NCCCO)ccc2nn(CC3CCN(C(=O)c4ccc(Cl)cc4)CC3)cc12 [Example 253, 2-{[1-(4-chlorobenzoyl)piperidin-4-yl]methyl}-N-(3-hydroxypropyl)-4-methyl-2H-indazol-5-carboxamide] | xx (xx: 10-100) | xx (xx: 10-100) | 168
Cc1c(C(=O)NCC(F)(F)F)ccc2nn(CC3CCN(C(=O)c4cn(C)c5ccccc45)CC3)cc12 [Example 289, 4-methyl-2-({1-[(1-methyl-1H-indol-3-yl)carbonyl]piperidin-4-yl}methyl)-N-(2,2,2-trifluoroethyl)-2H-indazol-5-carboxamide] | xxx (xxx > 100) | xxx (xxx > 100) | 51.6
Cc1c(C(=O)NCC(F)(F)F)ccc2nn(CC3CN(C(=O)c4ccc(Oc5ccc(F)cc5)cc4)C3)cc12 [Example 160, 2-({1-[4-(4-fluorophenoxy)benzoyl]azetidin-3-yl}methyl)-4-methyl-N-(2,2,2-trifluoroethyl)-2H-indazol-5-carboxamide] | xxx (xxx > 100) | xxx (xxx > 100) | 82.9
COCCNC(=O)c1ccc2nn(CC3CCN(C(=O)c4ccc(-c5cc(F)cc(F)c5)c(C)c4)CC3)cc2c1C [Example 391, 2-({1-[(3′,5′-difluoro-2-methylbiphenyl-4-yl)carbonyl]piperidin-4-yl}methyl)-N-(2-methoxyethyl)-4-methyl-2H-indazol-5-carboxamide] | xxx (xxx > 100) | xxx (xxx > 100) | 6.07
Cc1c(C(=O)NCCSC(F)(F)F)ccc2nn(CC3CN(C(=O)c4ccc(OC(F)(F)F)cc4)C3)cc12 [Example 133, 4-methyl-2-({1-[4-(trifluoromethoxy)benzoyl]azetidin-3-yl}methyl)-N-{2-[(trifluoromethyl)sulphanyl]ethyl}-2H-indazol-5-carboxamide] | xxx (xxx > 100) | xxx (xxx > 100) | 41.9

Continued, values first:

Selectivity hEP2/hDP [1] | Selectivity hEP2/hEP4 [2] | IC50 [3] [nM] | Compound
xxx (xxx > 100) | xxx (xxx > 100) | 18.9 | COCCNC(=O)c1ccc2nn(CC3CCN(C(=O)c4ccc(Oc5ccccc5F)cc4)CC3)cc2c1C [Example 366, 2-({1-[4-(2-fluorophenoxy)benzoyl]piperidin-4-yl}methyl)-N-(2-methoxyethyl)-4-methyl-2H-indazol-5-carboxamide]
xxx (xxx > 100) | xxx (xxx > 100) | 60 | COCCNC(=O)c1ccc2nn(CC3CCN(C(=O)c4ccc(Oc5ccncc5)cc4)CC3)cc2c1C [Example 51, N-(2-methoxyethyl)-4-methyl-2-({1-[4-(pyridyloxy)benzoyl]piperidin-4-yl}-methyl)-2H-indazol-5-carboxamide]
xxx (xxx > 100) | xxx (xxx > 100) | 5.11 | COCCNC(=O)c1ccc2nn(CC3CCN(C(=O)c4ccc(Oc5cccc(F)c5)cc4)CC3)cc2c1C [Example 361, 2-({1-[4-(3-fluorophenoxy)benzoyl]piperidin-4-yl}methyl)-N-(2-methoxyethyl)-4-methyl-2H-indazol-5-carboxamide]
xxx (xxx > 100) | xxx (xxx > 100) | 50.2 | COCCNC(=O)c1ccc2nn(CC3CCN(C(=O)c4ccc(OC5CCOCC5)cc4)CC3)cc2c1C [Example 353, N-(2-methoxyethyl)-4-methyl-2-({1-[4-(3,4,5,6-tetrahydro-2H-pyran-4-yloxy)-benzoyl]piperidin-4-yl}methyl)-2H-indazol-5-carboxamide]
xxx (xxx > 100) | xxx (xxx > 100) | 103 | COCCNC(=O)c1ccc2nn(CC3CCN(C(=O)c4ccc(Oc5ncccn5)cc4)CC3)cc2c1C [Example 342, N-(2-methoxyethyl)-4-methyl-2-({1-[4-(pyrimidin-2-yloxy)benzoyl]piperidin-4-yl}methyl)-2H-indazol-5-carboxamide]
